Tested on: antibiotic sensitive microorganism associated with red blood cells
Assay: PCR amplification of DNA from red blood cells of HIV-positive patients with MSP2 Primer Pairs 1 and 2, before and after long-term antibiotic treatment
Assay type: in vivo, human (HIV-positive patients)
Experimental: Standard procedures for separating RBCs from buffy coat and other peripheral blood components are known. Peripheral blood was processed on a Ficoll gradient to separate the buffy coat from red blood cells. […] This lysate was prepared by repeated freeze-thawing of red blood cells isolated from the buffy coat, strong shaking by vortex, and a low speed centrifugation (1,500 g×10 mins). A pellet and supernatant fraction were obtained and tested. The primers described above only amplified DNA in the supernatant fraction, but not in the pellet.
Five HIV-positive patients were maintained on their antiretroviral therapy, but received for at least three months a daily antibiotic treatment (azithromycin 250 mg/day or doxycycline 100 mg/day). Blood samples were fractionated to recover a red blood cell fraction on day 0 and after 3 months of antibiotic.
Blood samples were obtained from African and European Patients who were HIV-negative or HIV-positive. Red blood cells were isolated from buffy coat and other blood components by separation on a Ficoll gradient as described above. […] Similar results were obtained using the primers described in Appendix 3. […] However, amplified DNA was detected in this patient using the Primer Pairs 1 and 2 shown in Appendix 2, but the amplified DNA bands were weaker than those for chronically-infected HIV-positive patients. […]

CC[C@H]1OC(=O)[C@H](C)[C@@H](O[C@H]2C[C@@](C)(OC)[C@@H](O)[C@H](C)O2)[C@H](C)[C@@H](O[C@@H]2O[C@H](C)C[C@H](N(C)C)[C@H]2O)[C@](C)(O)C[C@@H](C)CN(C)[C@H](C)[C@@H](O)[C@]1(C)O [azithromycin] was tested, and the “intensity of the bands amplified using these primers” value (HIV-positive patients, long term antibiotic treatment for more than three months, Primer Pairs 1 and 2) was “decrease” and the “amount of DNA amplified after 3 months of antibiotic treatment vs day 0” value (five HIV-positive patients on antiretroviral therapy, daily azithromycin 250 mg/day or doxycycline 100 mg/day for at least three months, red blood cell fraction) was “significantly less”.

Source: US9133525B2, “Detection of DNA sequences as risk factors for HIV infection” (priority 2012, dated 2015)
